Assay results as given in patent US10638756B2, “Molecules having pesticidal utility, and intermediates, compositions, and processes, related thereto” (Dow AgroSciences LLC, priority 2017, dated 2020).

Tests used:
Assay type in all cases: in vivo
[1] = tested on: Cabbage Looper (Trichoplusia ni); assay: Bioassay on Cabbage Looper (CL), 128-well diet tray assay; conditions: 168 h, 50 μg/cm^2 on artificial diet, second instar larvae, five to seven days, read-out: CL % Control (or Mortality) rating
Method in brief: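 Percent mortality, averaged across eight replicate wells, after second-instar larvae (1–5 per well) fed for five to seven days on diet dosed at 50 μg/cm^2. Compound was applied in acetone-water 90:10 and dried; trays kept vented at 25° C under 14:10 photoperiod.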

[2] = tested on: Beet Armyworm (Spodoptera exigua); assay: Bioassay on Beet Armyworm (BAW), 128-well diet tray assay; conditions: for mortality at 50 µg/cm2: Spodoptera exigua, 168 h, 50 μg/cm^2 on artificial diet, second instar larvae, five to seven days, read-out: BAW % Control (or Mortality) rating
[3] = tested on: Green Peach Aphid (Myzus persicae); assay: Bioassay on Green Peach Aphid (GPA), foliar spray on cabbage seedlings; conditions: 72 h, 200 ppm foliar spray on cabbage seedlings, three days, Abbott corrected % control, read-out: GPA % Control (or Mortality) rating
Experimental: Certain molecules disclosed in this document were tested against GPA using procedures described in the following example. In the reporting of the results, the “GPA & YFM Rating Table” was used (See Table Section).
Cabbage seedlings grown in 3-inch pots, with 2-3 small (3-5 cm) true leaves, were used as test substrate. The seedlings were infested with 20-50 GPA (wingless adult and nymph stages) one day prior to chemical application. Four pots with individual seedlings were used for each treatment. Test molecules (2 mg) were dissolved in 2 mL of acetone/methanol (1:1) solvent, forming stock solutions of 1000 ppm test molecule. The stock solutions were diluted 5× with 0.025% Tween 20 in water to obtain the solution at 200 ppm test molecule. A hand-held aspirator-type sprayer was used for spraying a solution to both sides of […] leaves until runoff. Reference plants (solvent check) were sprayed with the diluent only containing 20% by volume of acetone/methanol (1:1) solvent. Treated plants were held in a holding room for three days at approximately 25° C. and ambient relative humidity (RH) prior to grading. Evaluation was conducted by counting the number of live aphids per plant under a microscope. Percent control was measured using Abbott's correction formula (W. S. Abbott, “A Method of Computing the Effectiveness of an Insecticide” J. Econ. Entomol. 18 (1925), pp. 265-267) as follows. Corrected % Control=100*(X−Y)/X where X=No. of live aphids on solvent check plants and Y=No. of live aphids on treated plants. The results are indicated in the table entitled “Table ABC: Biological Results” (See Table Section).

[4] = tested on: Yellow Fever Mosquito (Aedes aegypti); conditions: about 1 day-old larvae, 3 days, scored on mortality
Experimental: Certain molecules disclosed in this document were tested against YFM using procedures described in the following paragraph. In the reporting of the results, the “GPA & YFM Rating Table” was used (See Table Section).
Master plates containing 400 μg of a molecule dissolved in 100 μL of dimethyl sulfoxide (DMSO) (equivalent to a 4000 ppm solution) are used. A master plate of assembled molecules contains 15 μL per well. To this plate, 135 μL of a 90:10 water/acetone mixture is added to each well. A robot (Biomek® NXP Laboratory Automation Workstation) is programmed to dispense 15 μL aspirations from the master plate into an empty 96-well shallow plate (“daughter” plate). There are 6 reps (“daughter” plates) created per master. The created “daughter” plates are then immediately infested with YFM larvae.
The day before plates are to be treated, mosquito eggs are placed in Millipore water containing liver powder to begin hatching (4 g. into 400 mL). After the “daughter” plates are created using the robot, they are infested with 220 μL of the liver powder/larval mosquito mixture (about 1 day-old larvae). After plates are infested with mosquito larvae, a non-evaporative lid is used to cover the plate to reduce drying. Plates are held at room temperature for 3 days prior to grading. After 3 days, each well is observed and scored based on mortality. The results are indicated in the table entitled “Table ABC: Biological Results” (See Table Section).

Work on `O=C(NNc1ncccn1)c1ccc(/C(F)=C/C(c2cc(Cl)c(F)c(Cl)c2)C(F)(F)F)cc1C(F)(F)F` (centres unmarked) [F4, (Z)-4-(3-(3,5-Dichloro-4-fluorophenyl)-1,4,4,4-tetrafluorobut-1-en-1-yl)-N′-(pyrimidin-2-yl)-2-(trifluoromethyl)benzohydraziderazide] yielded a mortality at 50 µg/cm2 [1] of 50 to 100%, a mortality at 50 µg/cm2 [2] of 50 to 100% and a mortality at 200 ppm [3] of 0 to 80%.

Work on `O=C(Nn1ccnc1)c1ccc(/C(F)=C/C(c2cc(Cl)c(Cl)c(Cl)c2)C(F)(F)F)cc1C(F)(F)F` (centres unmarked) [F10, (Z)—N-(1H-Imidazol-1-yl)-4-(1,4,4,4-tetrafluoro-3-(3,4,5-trichlorophenyl)but-1-en-1-yl)-2-(trifluoromethyl)benzamide] yielded a mortality at 50 µg/cm2 [1] of 50 to 100%, a mortality at 50 µg/cm2 [2] of 50 to 100% and a mortality at 200 ppm [3] of 0 to 80%.

For `O=C(NNc1ncc(Cl)cn1)c1ccc(/C(F)=C/C(c2cc(Cl)c(Cl)c(Cl)c2)C(F)(F)F)cc1C(F)(F)F` (centres unmarked) [F63, (Z)—N′-(5-Chloropyrimidin-2-yl)-4-(1,4,4,4-tetrafluoro-3-(3,4,5-trichlorophenyl)but-1-en-1-yl)-2-(trifluoromethyl)benzohydrazide], the mortality at 50 µg/cm2 [1] was 50 to 100%, the mortality at 50 µg/cm2 [2] was 50 to 100% and the mortality at 200 ppm [3] was 0 to 80%. The “YFM % Control (or Mortality) rating” value [4] was “A (80-100)”.

`CN(NC(=O)c1ccc(/C(F)=C/C(c2cc(Cl)c(Cl)c(Cl)c2)C(F)(F)F)cc1C(F)(F)F)c1ncccn1` (centres unmarked) [F71, (Z)—N′-Methyl-N′-(pyrimidin-2-yl)-4-(1,4,4,4-tetrafluoro-3-(3,4,5-trichlorophenyl)but-1-en-1-yl)-2-(trifluoromethyl)benzohydrazide] was tested, and the mortality at 50 µg/cm2 [1] was 50 to 100%, the mortality at 50 µg/cm2 [2] was 50 to 100% and the mortality at 200 ppm [3] was 80 to 100%.

For `O=C(NNc1ncccn1)c1ccc(/C(F)=C/C(c2cc(Cl)c(Cl)c(Cl)c2)C(F)(F)F)cc1C(F)(F)F` (centres unmarked) [F97, (Z)—N′-(pyrimidin-2-yl)-4-(1,4,4,4-tetrafluoro-3-(3,4,5-trichlorophenyl)but-1-en-1-yl)-2-(trifluoromethyl)benzohydrazide], the mortality at 50 µg/cm2 [1] was 50 to 100%, the “BAW (Table CD-1)” value ([2]; 0.05 μg/cm^2) was 100 and the “BAW (Table CD-1)” value ([2]; 5.0 μg/cm^2) was 100. The “BAW (Table CD-1)” value ([2]; 50 μg/cm^2) was 100, the mortality at 50 µg/cm2 [2] was 50 to 100% and the mortality at 200 ppm [3] was 80 to 100%.

For `C=CCN(NC(=O)c1ccc(/C(F)=C/C(c2cc(Cl)c(Cl)c(Cl)c2)C(F)(F)F)cc1C(F)(F)F)c1ncccn1` (centres unmarked) [F152, (Z)—N′-Allyl-N′-(pyrimidin-2-yl)-4-(1,4,4,4-tetrafluoro-3-(3,4,5-trichlorophenyl)but-1-en-1-yl)-2-(trifluoromethyl)benzohydrazide], the mortality at 50 µg/cm2 [1] was 50 to 100%, the mortality at 50 µg/cm2 [2] was 50 to 100% and the “YFM % Control (or Mortality) rating” value [4] was “A (80-100)”.

`CN(NC(=O)c1ccc(/C(F)=C/C(c2cc(Cl)c(Cl)c(Cl)c2)C(F)(F)F)cc1C(F)(F)F)c1nccs1` (centres unmarked) [F158, (Z)—N′-methyl-4-(1,4,4,4-tetrafluoro-3-(3,4,5-trichlorophenyl)but-1-en-1-yl)-N′-(thiazol-2-yl)-2-(trifluoromethyl)benzohydrazide] was tested, and the mortality at 50 µg/cm2 [1] was 50 to 100%, the mortality at 50 µg/cm2 [2] was 50 to 100% and the “YFM % Control (or Mortality) rating” value [4] was “A (80-100)”.

With `O=C(NNc1ncccn1)c1ccc(/C(F)=C/C(c2cc(Cl)c(Br)c(Cl)c2)C(F)(F)F)cc1C(F)(F)F` (centres unmarked) [F172, (Z)-4-(3-(4-Bromo-3,5-dichlorophenyl)-1,4,4,4-tetrafluorobut-1-en-1-yl)-N′-(pyrimidin-2-yl)-2-(trifluoromethyl)benzohydrazide] the mortality at 50 µg/cm2 [1] was 50 to 100%, the mortality at 50 µg/cm2 [2] was 50 to 100% and the “YFM % Control (or Mortality) rating” value [4] was “A (80-100)”.

`O=C(NNc1ncccn1)c1ccc(/C(F)=C/C(c2cc(Br)cc(Br)c2)C(F)(F)F)cc1C(F)(F)F` (centres unmarked) [F176, (Z)-4-(3-(3,5-Dibromophenyl)-1,4,4,4-tetrafluorobut-1-en-1-yl)-N′-(pyrimidin-2-yl)-2-(trifluoromethyl)benzohydrazide] was tested, and the mortality at 50 µg/cm2 [1] was 50 to 100%, the mortality at 50 µg/cm2 [2] was 50 to 100% and the “YFM % Control (or Mortality) rating” value [4] was “A (80-100)”.

`C#CCN(C(=O)c1ccc(/C(F)=C/C(c2cc(Cl)c(Cl)c(Cl)c2)C(F)(F)F)cc1C(F)(F)F)N(C)c1ncccn1` (centres unmarked) [F180, (Z)—N′-Methyl-N-(prop-2-yn-1-yl)-N′-(pyrimidin-2-yl)-4-(1,4,4,4-tetrafluoro-3-(3,4,5-trichlorophenyl)but-1-en-1-yl)-2-(trifluoromethyl)benzohydrazide] showed a mortality at 50 µg/cm2 [1] of 50 to 100%, a mortality at 50 µg/cm2 [2] of 50 to 100% and a mortality at 200 ppm [3] of 0 to 80%. For the same compound, the “YFM % Control (or Mortality) rating” value [4] was “A (80-100)”.

In the case of `CNN(CC(=O)NCC(F)(F)F)C(=O)c1ccc(/C(F)=C/C(c2cc(Cl)c(Cl)c(Cl)c2)C(F)(F)F)cc1C(F)(F)F` (centres unmarked) [F183, (Z)-2-(2-Methyl-1-(4-(1,4,4,4-tetrafluoro-3-(3,4,5-trichlorophenyl)but-1-en-1-yl)-2-(trifluoromethyl)benzoyl)hydrazinyl)-N-(2,2,2-trifluoroethyl)acetamide], the mortality at 50 µg/cm2 [1] is reported as 50 to 100%, the mortality at 50 µg/cm2 [2] is reported as 50 to 100% and the “YFM % Control (or Mortality) rating” value [4] is reported as “A (80-100)”.

With `CN(C)N(CC(=O)NCC(F)(F)F)C(=O)c1ccc(/C(F)=C/C(c2cc(Cl)c(Cl)c(Cl)c2)C(F)(F)F)cc1C(F)(F)F` (centres unmarked) [F184, (Z)-2-(2,2-dimethyl-1-(4-(1,4,4,4-tetrafluoro-3-(3,4,5-trichlorophenyl)but-1-en-1-yl)-2-(trifluoromethyl)benzoyl)hydrazinyl)-N-(2,2,2-trifluoroethyl)acetamide] the mortality at 50 µg/cm2 [1] was 50 to 100%, the mortality at 50 µg/cm2 [2] was 50 to 100% and the “YFM % Control (or Mortality) rating” value [4] was “A (80-100)”.
